Like-named read-outs stand apart in the source and are kept apart here.
What was measured:
HT29 colon [1] = assay: MTT cell viability assay (GI50), HT29; format: cell-based, human; conditions: for SCI: GI50 (MCF10A)/GI50 (HT29); for GI50: MTT
A431 skin [2] = assay: MTT cell viability assay (GI50), A431; format: cell-based, human; conditions: for SCI: GI50 (MCF10A)/GI50 (A431); for GI50: A431 skin, MTT
SJ-G2 glioblastoma [3] = assay: MTT cell viability assay (GI50), SJ-G2; format: cell-based, human; conditions: for SCI: GI50 (MCF10A)/GI50 (SJ-G2); for GI50: SJ-G2 glioblastoma, MTT
MIA pancreas [4] = assay: MTT cell viability assay (GI50), MIA; format: cell-based, human; conditions: for SCI: GI50 (MCF10A)/GI50 (MIA); for GI50: MIA pancreas, MTT
[5] = tested on: cisplatin-resistant ADDP ovarian variant; assay: MTT cell viability assay (GI50), ADDP; format: cell-based, human; conditions: for SCI: GI50 (MCF10A)/GI50 (ADDP); for GI50: cisplatin-resistant ADDP ovarian variant, MTT
MCF-7 breast [6] = assay: MTT cell viability assay (GI50), MCF-7; format: cell-based, human; conditions: for SCI: GI50 (MCF10A)/GI50 (MCF-7); for GI50: MCF-7 breast, MTT
HT29 colon [7] = tested on: HT29 colon; design: method as in PMID 36142383, PMID 37173934, PMID 36296713; conditions: cited from earlier work
U87 glioblastoma = tested on: U87 glioblastoma; design: method as in PMID 36142383, PMID 37173934, PMID 36296713; conditions: cited from earlier work
H460 lung = tested on: H460 lung; design: method as in PMID 36142383, PMID 37173934, PMID 36296713; conditions: cited from earlier work
A431 skin [8] = tested on: A431 skin; design: method as in PMID 36142383, PMID 37173934, PMID 36296713; conditions: cited from earlier work
Du145 prostate = tested on: Du145 prostate; design: method as in PMID 36142383, PMID 37173934, PMID 36296713; conditions: cited from earlier work
BE2-C neuroblastoma = tested on: BE2-C neuroblastoma; design: method as in PMID 36142383, PMID 37173934, PMID 36296713; conditions: cited from earlier work
SJ-G2 glioblastoma [9] = tested on: SJ-G2 glioblastoma; design: method as in PMID 36142383, PMID 37173934, PMID 36296713; conditions: cited from earlier work
MIA pancreas [10] = tested on: MIA pancreas; design: method as in PMID 36142383, PMID 37173934, PMID 36296713; conditions: cited from earlier work
MCF-7 breast [11] = tested on: MCF-7 breast; design: method as in PMID 36142383, PMID 37173934, PMID 36296713; conditions: cited from earlier work
[12] = tested on: non-tumour-derived MCF10A breast line; design: method as in PMID 36142383, PMID 37173934, PMID 36296713; conditions: cited from earlier work
[13] = tested on: multiple human cell lines; design: method as in PMID 36142383, PMID 37173934, PMID 36296713; conditions: average over all cell lines; cited from earlier work
[14] = tested on: multiple human cell lines; assay: MTT cell viability assay, all cell lines (mean/range of GI50); format: cell-based; conditions: for fold decrease of average GI50 relative to the platinum(IV) scaffold: average GI50 of scaffold vs 5B3A derivative, all cell lines; for GI50: average over all cell lines
[15] = Lipophilicity by analytical HPLC (log kw); format: physicochemical
Excerpt: The order of complexes by increasing lipophilicity is P-5B3A < 5-5B3A < 56-5B3A (Table 2 and Figure S27). It can be deduced that increasing methylation on the heterocyclic ligand increased lipophilicity. This trend agrees with published data. The determined log kw values are consistent and within the range of the log kw values determined for similar complexes reported in the literature.
Lipophilicity measurements were completed via analytical HPLC, as previously reported.

[16] = Reduction with ascorbic acid (AsA) followed by 1H-NMR and 1D-195Pt-NMR; format: physicochemical; conditions: PBS, DMSO-d6, 37 °C; for Approximate Reduction Time Points T50%: time at which 50% of reduction occurs; for Approximate Reduction Time Points T100%: time at which 100% of reduction occurs
Procedure: The biological reductant selected for this study is AsA. Briefly, sequential ^1H-NMR experiments were performed for 1 h at 37 °C, proceeded by 1D-^195Pt-NMR at 400 and −2800 ppm (30 min per region). It is noteworthy that the purity of each complex was examined prior the reduction experiments ensuring that no traces of platinum(II) species were evident in the samples used. All complexes were dissolved in PBS and DMSO-d6, without the reductant. Preliminary 1D-^195Pt-NMR measurements were conducted at 37 °C at 400 and −2800 ppm. […] Upon treatment of the platinum(IV) complexes with AsA, there was considerable reduction observed in the ^1H-NMR and 1D-^195Pt-NMR spectra acquired (Figures S31–S36). Notable changes in chemical multiplicity were recorded in the ^1H-NMR reduction spectra of P-5B3A, 5-5B3A and 56-5B3A (Figures S31, S33 and S35), especially along the aromatic region. The estimated reduction time points for P-5B3A, 5-5B3A and 56-5B3A are also outlined in Table 3.
The reduction behaviour of P-5B3A, 5-5B3A and 56-5B3A was investigated using ^1H-NMR and 1D-^195Pt-NMR spectroscopy, using previously established methods.

[17] = Stability in PBS monitored by analytical HPLC; format: physicochemical; conditions: PBS pH ~7.4, ~10 mM, 37 °C, one week, HPLC at 254 nm
Procedure: The stability of P-5B3A, 5-5B3A and 56-5B3A was monitored via analytical HPLC.
The stability of P-5B3A, 5-5B3A and 56-5B3A were measured at 254 nm. Each complex was incubated in aqueous phosphate-buffered saline (PBS) solution (pH ~7.4) (total sample concentration, ~10 mM) at 37 °C for one week. Analytical HPLC was utilised to monitor the experiments.

Solubility in d.i.H2O = format: physicochemical; conditions: room temperature
Procedure: The solubility of P-5B3A, 5-5B3A and 56-5B3A was tested in d.i.H2O at room temperature. Small aliquots of d.i.H2O were titrated into an Eppendorf tube containing 1 mg of each complex until full dissolution. For every titration, each sample solution was vortexed and sonicated.

[18] = tested on: non-tumour-derived MCF10A breast line; conditions: for GI50: MCF10A non-tumour-derived breast, MTT

| Compound | SCI (HT29 colon [1]) | SCI (A431 skin [2]) | SCI (SJ-G2 glioblastoma [3]) | SCI (MIA pancreas [4]) | SCI [5] | SCI (MCF-7 breast [6]) | GI50 (HT29 colon [1]; HT29 colon) [nM] | GI50 (A431 skin [2]) [nM] | GI50 (SJ-G2 glioblastoma [3]) [nM] | GI50 (MIA pancreas [4]) [nM] | GI50 [5] [nM] | GI50 (MCF-7 breast [6]) [nM] | fold decrease of average GI50 relative to the platinum(IV) scaffold [14] [fold] | GI50 [14] [nM] | log kw Values [15] | Approximate Reduction Time Points T50% [16] [min] | Approximate Reduction Time Points T100% [16] [min] | Stability [17] | Solubility (Solubility in d.i.H2O) [µg/mL] | GI50 [18] [nM] | also measured |
| --- | --- | --- | --- | --- | --- | --- | --- | --- | --- | --- | --- | --- | --- | --- | --- | --- | --- | --- | --- | --- | --- |
| N.N.[Cl][Pt][Cl] [Cisplatin, cis-diammineplatinum(II) dichloride] | 0.46 | 2.17 | 13.00 | 0.69 | 0.19 | 0.80 |  |  |  |  |  |  |  |  |  |  |  |  |  |  | GI50 (HT29 colon [7]): 11300 nM; GI50 (U87 glioblastoma): 3800 ± 1100 nM; GI50 (H460 lung): 900 ± 200 nM; GI50 (A431 skin [8]): 2400 ± 300 nM; GI50 (Du145 prostate): 1200 ± 100 nM; GI50 (BE2-C neuroblastoma): 1900 ± 200 nM; GI50 (SJ-G2 glioblastoma [9]): 400 ± 100 nM; GI50 (MIA pancreas [10]): 7500 ± 1300 nM; GI50 (MCF-7 breast [11]): 6500 ± 800 nM; GI50 [12]: 5200 ± 520 nM; GI50 [13]: 5840 ± 610 nM |
| [Pt^IV(5,6-Me2phen)(SS-DACH)(5B3A)(OH)]^2+ [56-5B3A] | 0.75 | 0.10 | 0.03 | 0.28 | 0.55 | 0.05 | 4.4 ± 1.6 | 33 ± 8.4 | 110 ± 20 | 12 ± 3 | 6 ± 3 | 68 ± 10 | 3.6 | 42 ± 7 | 2.11 | 0 to 5 | 10 | adequately stable in aqueous solution for up to 1 week | 4000 | 3.3 ± 0.9 | fold more potent than 56MESS ([5]; ADDP): 0.5 fold |
| [Pt^IV(5-Mephen)(SS-DACH)(5B3A)(OH)]^2+ [5-5B3A] | 1.06 | 0.20 | 0.10 | 0.61 | 0.83 | 0.10 | 18 ± 0.67 | 93 ± 8 | 200 ± 40 | 31 ± 3 | 23 ± 0.88 | 200 ± 21 | 4 | 104 ± 12 | 1.91 | 5 to 10 | 30 | adequately stable in aqueous solution for up to 1 week | 6000 | 19 ± 1.5 | fold more potent than cisplatin (HT29 colon [1]; HT29 colon, GI50 ratio): ~630 fold; fold more potent than cisplatin ([5]; ADDP, GI50 ratio): ~1220 fold; fold lower average GI50 than 5MESS ([14]; average GI50, all cell lines): approximately 0.9 fold |
| [Pt^IV(phen)(SS-DACH)(5B3A)(OH)]^2+ [P-5B3A] | 1.40 | 0.23 | 0.22 | 0.90 | 0.85 | 0.05 | 200 ± 27 | 1200 ± 100 | 1300 ± 200 | 310 ± 26 | 330 ± 8.8 | 5400 ± 2800 | ~1.6 | 2080 ± 703 | 1.82 | 10 to 15 | 60 | adequately stable in aqueous solution for up to 1 week | 7000 | 280 ± 39 | fold more potent than carboplatin (HT29 colon [1]; HT29 colon, GI50 ratio): ≥ 250 fold; fold more potent than cisplatin (HT29 colon [1]; HT29 colon, GI50 ratio): at least 57 fold; fold more potent than oxaliplatin (HT29 colon [1]; HT29 colon, GI50 ratio): ≥ 5 fold; fold more potent than carboplatin ([5]; ADDP, GI50 ratio): 152 fold; fold more potent than cisplatin ([5]; ADDP, GI50 ratio): at least 85 fold; fold larger average GI50 than 5-5B3A ([14]; average GI50, all cell lines): 20 fold; fold larger average GI50 than 56-5B3A ([14]; average GI50, all cell lines): 50 fold; fold difference in cytotoxicity versus PHENSS [18]: 0.9 fold |
